Experimental findings from patent US7175856B2, “Palatable oral suspension and method” (Bristol-Myers Squibb Company, priority 2002, dated 2007) are described below.

Each structure is given as a SMILES string.

This data set can be described thus: physchem. Format: physicochemical.

For `C[C@H]1NCc2cc(-c3ccc4c(=O)c(C(=O)O)cn(C5CC5)c4c3OC(F)F)ccc21` [des-quinolone, 1-Cyclopropyl-8-(difluoromethoxy)-7-[(1R)-1-methyl-2,3-dihydro-1H-5-isoindolyl]-4-oxo-1,4-dihydro-3-quinolinecarboxylic acid methanesulfonate monohydrate], the solubility runs as follows: (aqueous buffer) around 70 µg/mL; (water) around 17400 µg/mL.
